Measurements: patent US6022869A, “Aminoheterocyclic compounds with antithrombotic/anticoagulant effect” (Zeneca Limited, priority 1996, dated 2000)

What was measured:
[1] = biological target: T1, human thrombin (Homo sapiens, UniProt P00734); test: Measurement of Thrombin Inhibition (test b, chromogenic substrate S-2238); assay type: biochemical; settings: human thrombin 0.005 Units/ml, S-2238 7 μM
T1 construct: cleaves prothrombin to generate thrombin
Method: b) Measurement of Thrombin Inhibition
The procedure of method a) was repeated except that human thrombin (0.005 Units/ml) and the chromogenic substrate S-2238 (KabiVitum AB, 7 μM) were employed.

[2] = tested on: human, rat or rabbit blood plasma (prothrombin time); test: Measurement of Anticoagulant Activity, prothrombin time (PT) test in vitro (test c); settings: plasma incubated 10 minutes at 37° C., species not given
Method: c) Measurement of Anticoagulant Activity
An in vitro assay whereby human, rat or rabbit venous blood was collected and added directly to a sodium citrate solution (3.2 g/100 ml, 9 parts blood to 1 part citrate solution). Blood plasma was prepared by centrifugation (1000 g, 15 minutes) and stored at 2-4° C. Conventional prothrombin time (PT) tests were carried out in the presence of various concentrations of a test compound and the concentration of test compound required to double the clotting time, hereinafter referred to as CT2, was determined. In the PT test, the test compound and blood plasma were incubated at 37° C. for 10 minutes. Tissue thromboplastin with calcium (Sigma Limited, Poole, England) was added. Fibrin formation and the time required for a clot to form were determined.

[3] = biological target: human Factor Xa (Homo sapiens, UniProt P00742); test: Measurement of Factor Xa Inhibition (test a, chromogenic substrate S-2765); assay type: biochemical; settings: pH 7.5, 37° C., human Factor Xa 0.001 Units/ml
Sequence of human Factor Xa (P00742 235-488 limits assumed): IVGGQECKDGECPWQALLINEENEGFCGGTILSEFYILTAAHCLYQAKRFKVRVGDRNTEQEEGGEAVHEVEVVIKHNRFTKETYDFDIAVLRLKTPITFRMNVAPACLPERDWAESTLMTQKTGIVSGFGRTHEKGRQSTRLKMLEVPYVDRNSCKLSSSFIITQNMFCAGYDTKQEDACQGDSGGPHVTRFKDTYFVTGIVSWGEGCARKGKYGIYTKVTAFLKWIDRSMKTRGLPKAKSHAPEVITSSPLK
Sequence of human Factor Xa (P00742 41-179 partner limits assumed): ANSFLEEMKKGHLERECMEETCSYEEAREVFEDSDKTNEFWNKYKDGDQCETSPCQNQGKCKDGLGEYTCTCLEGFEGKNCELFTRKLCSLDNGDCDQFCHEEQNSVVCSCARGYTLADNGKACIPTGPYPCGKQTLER
Method: a) Measurement of Factor Xa Inhibition
An in vitro assay system was carried out based on the method of Kettner et al., J. Biol. Chem., 1990, 265, 18289-18297, whereby various concentrations of a test compound were dissolved in a pH7.5 buffer containing 0.5% of a polyethylene glycol (PEG 6000) and incubated at 37° C. with human Factor Xa (0.001 Units/ml, 0.3 ml) for 15 minutes. The chromogenic substrate S-2765 (KabiVitum AB, 20 μM) was added and the mixture was incubated at 37° C. for 20 minutes whilst the absorbance at 405 nm was measured. The maximum reaction velocity (Vmax) was determined and compared with that of a control sample containing no test compound. Inhibitor potency was expressed as an IC50 value.

[4] = tested on: Factor Xa; settings: known from the literature; cited from earlier work
[5] = tested on: various animal models of thrombotic disease; settings: cited from earlier work

Molecule: CCSCCNC(=O)C1CN(S(=O)(=O)c2ccc3cc(Br)ccc3c2)CCN1C(=O)C1CCN(c2ccncc2)CC1 (stereo not shown) [Example 1, 4-(6-Bromonaphth-2-ylsulphonyl)-2-[N-(2-(ethylthio)ethyl)carbamoyl]-[1-1-(4-pyridyl)piperidin-4-ylcarbonyl]piperazine]
- IC50 [1]: > 5000 nM
- CT2 (PT), concentration of test compound required to double the clotting time [2]: 1 µM
- IC50 [3]: 4 nM

Molecule: tick anticoagulant protein (TAP): protein, specific Factor Xa inhibitor which possesses antithrombotic properties (YNRLCIKPRDWIDECDSNEGGERAYFRNGKGGCDSFWICPEDHTGADYYSSYRDCFNACI; UniProt P17726 1-60, looked up)
- Factor Xa inhibition (specificity, in words) [4]: specific Factor Xa inhibitors
- antithrombotic properties (in words) [5]: possess antithrombotic properties

B1: antistasin: protein, specific Factor Xa inhibitor which possesses antithrombotic properties (protein, UniProt P15358 18-136, looked up)
Antistasin: QGPFGPGCEEAGCPEGSACNIITDRCTCSGVRCRMHCPHGFQRSRYGCEFCKCRLEPMKATCDISECPEGMMCSRLTNKCDCKIDINCRKTCPNGLKRDKLGCEYCECRPKRKLIPRLS
- Factor Xa inhibition (specificity, in words) [4]: specific Factor Xa inhibitors
- antithrombotic properties (in words) [5]: possess antithrombotic properties
